Source: patent US11931335B2, “Enhancing autophagy or increasing longevity by administration of urolithins or precursors thereof” (Amazentis SA, priority 2012, dated 2024)
“Also recorded” adds a separate entry of the source. Read-outs that look alike come from different tables or passages of the source.

Experiments:
[1] = system: undifferentiated C2C12 mouse myoblasts; assay: LC3B flow cytometry in C2C12 myoblasts; type: cell-based; settings: 100 μM, 24 hrs, FIG. 26
Procedure: To determine the ability of urolithin A to induce autophagy in mouse muscle cells, undifferentiated C2C12 mouse myoblasts were seeded in T25 flasks and incubated overnight. Cells were incubated in 5% CO2 at 37° C. These cells were treated with one of the urolithins-urolithin A (UA), urolithin B (UB), urolithin C (UC) or urolithin D (UD)—dissolved in a 0.1% solution of DMSO for 24 hours. In one experiment UA, UB, UC and UD were dosed at a concentration of 100 μM for C2C12 myoblast treatment. In a separate study, C2C12 myoblasts were incubated at increasing concentrations of UA (10 μM, 50 μM and 100 μM). For each experiment a control culture was treated with 0.1% DMSO for the same period and served as the untreated control. In the final 30 minutes of incubation, lysosome degradation inhibitor was added to the culture. The cells were then washed with phosphate buffer solution and then treated with a 1% solution of trypsin enzyme to remove the adhesive cells from the cell culture dishes. The cells were then treated with EMD Millipore selective permeabilization reagent to permeabilize the cells so as to make the internal cellular proteins accessible to antibody treatment. Cells were then incubated with antibody to LC3B according to kit protocol (EMD Millipore FlowCellect™ Autophagy LC3 Antibody-based Assay Kit (Cat no. FCCH100171)). The cells were then washed and resuspended in the kit assay buffer. The resulting cells were then run through a flow cytometer and LC3B-FITC fluorescence was quantified to measure the level of LC3B in C2C12 cells for the various treatments. When cells undergo autophagy their intracellular levels of LC3-II increase which is detected by this method. This autophagy can be detected by fluorescent antibody labeling of LC3B, which can be measured quantitatively using flow cytometry. An increase in cellular autophagy is reflected by an increasing signal in the histogram of LC3B FITC.

[2] = system: C. elegans wild-type Bristol N2; assay: Lifespan of wild-type C. elegans; type: in vivo; settings: concentration of 50 µM; exposed from eggs; FIG. 4
Procedure: C. elegans strains were cultured at 20° C. on nematode growth media (NGM) agar plates seeded with E. coli strain OP50. Strain used was wild-type Bristol N2 provided by the Caenorhabditis Genetics Center (University of Minnesota). All Compounds were dissolved in DMSO. Animals were exposed to compounds from eggs on plates seeded with live OP50 bacteria. Control plates were prepared with the corresponding concentrations of DMSO (0.1%). For lifespan tests, worms were observed using a Nikon SMZ1500 stereomicroscope (Nikon, Melville, NY, USA). […] After 3 days (corresponding to day 0), newly developed 60 to 100 L4 worms were used per condition, scored and transferred to fresh plates every 3 days starting from day 1 (young adult worms). All lifespan experiments were performed at 20° C.
Lifespan assays were performed with (A) wild-type (N2), (B) sir-2.1(ok434) mutant, (C) aak-2(ok524), (D) daf-16(mu86), (E) eat-2(ad465) and (F) daf-2(e1370) mutant strains of C. elegans maintained during their full life on plates supplemented with either 50 μM of urolithin A or with a control treatment and seeded with OP50 bacteria. Control plates without urolithin A contained an equivalent concentration of DMSO. Worm lifespan assays were performed at 20° C.

[3] = system: C. elegans wild-type Bristol N2; settings: Genotype: N2, fed live E. coli (OP50), cited from earlier work
[4] = system: C. elegans wild type (N2, Bristol); assay: Mobility tracking of C. elegans during aging; type: in vivo; settings: days 1, 3, 5 and 8 of adulthood; 50 μM; FIG. 12
Procedure: To examine the effect of urolithins on muscle activity during aging, C. elegans mobility was examined over time. Synchronized populations of wild-type nematodes were prepared by standard methods and cultivated at 20° C. on NGM agar containing E. Coli (OP50) with or without test compounds (ellagic acid (EA), urolithins A (UA), and B (UB)). At Day 0, five plates were prepared, each containing 10 young adult worms. Worms were assayed for mobility at different ages, day 1, 3, 5 and 8 of adulthood. The wild type (N2, Bristol) worm strain was employed for these studies.
For C. elegans movement tracking, 45 seconds of video were recorded using a Nikon DS-L2/DS-Fi1 camera and controller setup, attached to both a computer and a standard bright field microscope, tracking an entire plate of 10 worms, with 5 plates per condition. The movement of worms during this time was calculated using an adapted version of the freely-available software Parallel Worm Tracker for MATLAB. The total movement over the 45 second tracking was averaged across all worms for each condition. This experiment was repeated twice with between 40 and 70 worms per condition.

[5] = system: C. elegans; assay: Pharyngeal pumping in C. elegans; type: in vivo; settings: day 14 (aged worms); 50 μM; FIG. 11
Procedure: To examine the effect of urolithins on muscle function, pharyngeal pumping was examined in C. elegans worms at day 7 and day 14. Worms were observed using a Nikon SMZ1500 stereomicroscope (Nikon, Melville, NY, USA). Ten L4 worms were transferred on plates containing NGM medium with vehicle (DMSO 0.1%, final concentration) or the compound of interest (urolithin A (UA), urolithin B (UB), urolithin C (UC), urolithin D (UD)) dissolved in DMSO (final concentration 50 μM) and seeded with E. coli RNAi clones as indicated. After 3 days (corresponding to day 0), newly developed 60 to 100 L4 worms were used per condition, scored and transferred to fresh plates every 3 days starting from day 1 (young adult worms). Experiments were performed at 20° C.
The pharyngeal pumping rates at day 7 and 14 were measured for 10 worms by transferring single worms to an unseeded plate and scoring for pharyngeal pumping under a dissecting microscope for 30 seconds. The pharyngeal pumping rates were then computed by extrapolating the pumping made by worms during this 30 second period.

[6] = system: C. elegans; assay: Time-lapse motility of C. elegans; type: in vivo; settings: 50 μM; days 8, 14 and 16; FIG. 13
Text: Briefly, worms were observed using a Nikon SMZ1500 stereomicroscope (Nikon, Melville, NY, USA). […] Experiments were repeated three times.

For `O=c1oc2cc(O)ccc2c2cc(O)c(O)cc12` [Urolithin C, urolithin C], the “LC3B signal (shift of the histogram)” value ([1]; listed as UC) was “increasing signal of LC3B; also recorded: increase in autophagy” and the “effect on lifespan in C. elegans” value [2] was “extended the lifespan”.

In the case of `NCCCCNCCCN` [Spermidine, spermidine], the “Mean Life Extension (%)” value ([3]; dose 200 μM) is listed as 15%.

With `O=c1oc2c(O)c(O)cc3c(=O)oc4c(O)c(O)cc1c4c23` [Ellagic acid, ellagic acid] the “age related mobility decline” value [4] was “no effect” and the “effect on lifespan in C. elegans” value [2] was “no effects”.

For `O=c1oc2c(O)c(O)ccc2c2cc(O)c(O)cc12` [Urolithin D, urolithin D], the “LC3B signal (shift of the histogram)” value ([1]; listed as UD) was “increasing signal of LC3B; also recorded: increase in autophagy” and the “effect on lifespan in C. elegans” value [2] was “extended the lifespan”.

In the case of `CN(C)C(=N)NC(=N)N` [Metformin, N,N-Dimethylimidodicarbonimidic diamide], the “Mean Life Extension (%)” value ([3]; dose 50 μM) is given as 27%.

In the case of `Oc1ccc(/C=C/c2cc(O)cc(O)c2)cc1` [Resveratrol, 3,5,4′-trihydroxy-trans-stilbene], the “Mean Life Extension (%)” value ([3]; dose 100 μM) is given as 6.2-12.6% and the “Mean Life Extension (%)” value ([3]; dose 100 μM, listed as resveratrol) is given as 12.6%.

In the case of `CO[C@H]1C[C@@H]2CC[C@@H](C)[C@@](O)(O2)C(=O)C(=O)N2CCCC[C@H]2C(=O)O[C@H]([C@H](C)C[C@@H]2CC[C@@H](O)[C@H](OC)C2)CC(=O)[C@H](C)/C=C(\C)[C@@H](O)[C@@H](OC)C(=O)[C@H](C)C[C@H](C)/C=C/C=C/C=C/1C` [Rapamycin, (3S,6R,7E,9R,10R,12R,14S,15E,17E,19E,21S,23S,26R,27R,34aS)-9,10,12,13,14,21,22,23,24,25,26,27,32,33,34,34a-hexadecahydro-9,27-dihydroxy-3-[(1R)-2-[(1S,3R,4R)-4-hydroxy-3-methoxycyclohexyl]-1-methylethyl]-10,21-dimethoxy-6,8,12,14,20,26-hexamethyl-23,27-epoxy-3H-pyrido[2,1-c][1, 4]-oxaazacyclohentriacontine-1,5,11,28,29(4H,6H,31H)-pentone], the “Mean Life Extension (%)” value ([3]; dose 100 μM) is listed as 19%.

In the case of `O=c1oc2cc(O)ccc2c2ccccc12` [Urolithin B, urolithin B], the “pharyngeal pumping (muscle function)” value [5] is reported as “decreases the age related decline in muscle activity”, the “age related mobility decline” value [4] is reported as “marked ability to reduce muscle function decline” and the “LC3B signal (shift of the histogram)” value ([1]; listed as UB) is reported as “increasing signal of LC3B; also recorded: increase in autophagy”. For the same compound, the “motility (time-lapse traces)” value [6] was “strongest effect” and the “effect on lifespan in C. elegans” value [2] was “extended the lifespan”.
